Measurements reported in the supplement of paper PMC10477900.
Structures can show the parent of a compound that is named as a salt.

Columns and labels:
HCT116 [1] = settings: 72 h
Protocol: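 HCT116 control and MTA1-KO (CRISPR) HCT116 cells were seeded in 384-well plates (800 cells/well), treated 16 h later with 237 metabolism-related anticancer drugs at five doses (10 uM, 2 uM, 400 nM, 80 nM, 16 nM) for 72 h, two replicates; viability by CCK8. Values are % inhibition of viability relative to untreated cells, plus fitted IC50.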

HCT116 [2] = experiment: viability inhibition vs untreated; higher = more cytotoxic; settings: 72 h

| Compound | IC50 (HCT116 [1]; genotype: MTA1-KO) | IC50 (HCT116 [1]; genotype: control) | viability inhibition (HCT116 [2]; genotype: MTA1-KO, 16 nM) | viability inhibition (HCT116 [2]; genotype: MTA1-KO, 80 nM) | viability inhibition (HCT116 [2]; genotype: MTA1-KO, 400 nM) | viability inhibition (HCT116 [2]; genotype: MTA1-KO, 2000 nM) | viability inhibition (HCT116 [2]; genotype: MTA1-KO, 10000 nM) | viability inhibition (HCT116 [2]; genotype: control, 16 nM) | viability inhibition (HCT116 [2]; genotype: control, 80 nM) | viability inhibition (HCT116 [2]; genotype: control, 400 nM) | viability inhibition (HCT116 [2]; genotype: control, 2000 nM) | viability inhibition (HCT116 [2]; genotype: control, 10000 nM) |
| --- | --- | --- | --- | --- | --- | --- | --- | --- | --- | --- | --- | --- |
| CC(C)n1nc(-c2ccc3oc(N)nc3c2)c2c(N)ncnc21 [INK 128] | 1.04 µM | < 0.016 µM | -1.98% | 6.98% | 33.7% | 44.4% | 70% | 52.9% | 40.8% | 50.1% | 52.3% | 76.6% |
| NN=C(N)N [Aminoguanidine hydrochloride] | > 10 µM | > 10 µM | -22% | -27.7% | -23.9% | -10.8% | -13.7% | -13.6% | -11.1% | -12.3% | -13.1% | -5.39% |
| O=C(O)c1ccc(C=C2SC(=S)N(c3cccc(C(F)(F)F)c3)C2=O)cc1 [CFTRinh172] | > 10 µM | 5.31 µM | -5.28% | -12.6% | -0.878% | -4.39% | 25.2% | -6.21% | -18.3% | -11.9% | 16% | 64.3% |
| O=[N+]([O-])c1ccc(Nc2nc(N3CCOCC3)nc(N3CCOCC3)n2)cc1 [MHY1485] | > 10 µM | 4.59 µM | 7.65% | 14.4% | 13.3% | 8.16% | 45.5% | -9.75% | 7.66% | 14.9% | 23.1% | 74.8% |
| O=C(O)c1c[nH]c2cc(Cl)c(-c3ccc(C4(O)CCC4)cc3)cc12 | 3.94 µM | > 10 µM | -7.04% | 0.458% | -9.68% | 0.998% | 72.2% | -1.55% | -12.5% | -12.9% | -5.3% | 7.54% |
| Cc1ccc(S(=O)(=O)Cc2nc(-c3ccc(C(=O)NCc4cccnc4)cc3)oc2C)cc1 | > 10 µM | > 10 µM | 5.08% | -6.5% | -22.3% | -11.9% | 2.23% | 9.95% | 6.71% | 18.9% | 19% | 26.9% |
| CO[C@H]1C[C@@H]2CC[C@@H](C)[C@@](O)(O2)C(=O)C(=O)N2CCCC[C@H]2C(=O)O[C@H]([C@H](C)C[C@@H]2CC[C@@H](OC(=O)C(C)(CO)CO)[C@H](OC)C2)CC(=O)[C@H](C)/C=C(\C)[C@@H](O)[C@@H](OC)C(=O)[C@H](C)C[C@H](C)/C=C/C=C/C=C/1C [Temsirolimus] | < 0.016 µM | > 10 µM | 56.3% | 49.2% | 48.4% | 46.7% | 60.5% | 12% | 10.7% | 8.05% | -1.62% | 46.1% |
| O=c1c(O)c(-c2ccc(O)cc2)oc2cc(O)cc(O)c12 [Kaempferol] | > 10 µM | > 10 µM | 9.79% | 3.08% | 3.45% | 10.9% | 39% | 7.5% | 18.7% | -0.112% | 8.84% | 23.1% |
| CC(C)c1nc(N(C)S(C)(=O)=O)nc(-c2ccc(F)cc2)c1/C=C/[C@@H](O)C[C@@H](O)CC(=O)O [Rosuvastatin] | > 10 µM | > 10 µM | -4.22% | -8.46% | -10.3% | -11.2% | -10.9% | -1.14% | -8.14% | 4.9% | -10.3% | 31.2% |
| CCC(=O)Nc1cccc(Oc2nc(Nc3ccc(N4CCN(C)CC4)cc3OC)ncc2Cl)c1 [WZ4003] | > 10 µM | > 10 µM | -5.75% | -20% | -8% | -5.19% | 8.72% | 8.56% | -15.4% | -4.38% | -7.1% | 12.2% |
| N#Cc1ccnc(N2C(=O)CC[C@H]2C(=O)N(c2cncc(F)c2)[C@H](C(=O)NC2CC(F)(F)C2)c2ccccc2Cl)c1 [Ivosidenib] | 5.82 µM | > 10 µM | 3.53% | -8.17% | -0.782% | 12.7% | 61.7% | -4.33% | -18.7% | -4.67% | -16.1% | -2.68% |
| NS(=O)(=O)C#Cc1ccccc1 [Pifithrin-μ] | > 10 µM | > 10 µM | -6.33% | -6.69% | -11.6% | -13.4% | -5.71% | 12.9% | -14.1% | -16.5% | -18.1% | 20.2% |
| O=C(O)c1nn(Cc2ccc(Cl)cc2Cl)c2ccccc12 [Lonidamine] | > 10 µM | > 10 µM | -2.77% | -15.4% | -12.8% | -13.1% | 17.1% | 4.32% | -14% | -10.1% | 0.337% | 23.5% |
| COc1ccc(-c2ccc3c(N4CCOCC4)nc(N4C[C@@H](C)O[C@@H](C)C4)nc3n2)cc1CO | 0.753 µM | 2.24 µM | 14.6% | 18.1% | 36.5% | 68.5% | 82.3% | 13.2% | 20.4% | 21.5% | 59.4% | 72.9% |
| Cc1nc(Nc2cnn(C3CCNCC3)c2)nc2c1N(C)C(=O)c1cc3ccccc3cc1N2C [HTH-01-015] | 7.99 µM | > 10 µM | -1.49% | 5.48% | -1.32% | 5.37% | 62.5% | 2.33% | 10.7% | 23.3% | 17.9% | 40.7% |
| N#Cc1c(O)c2c(-c3ccc(-c4ccccc4O)cc3)csc2[nH]c1=O | > 10 µM | > 10 µM | 7.25% | 0.475% | 5.93% | 6.59% | 21.8% | -9.79% | -10.7% | -8.84% | -17.7% | 3.16% |
| CO[C@H]1C[C@@H]2CC[C@@H](C)[C@@](O)(O2)C(=O)C(=O)N2CCCC[C@H]2C(=O)O[C@H]([C@H](C)C[C@@H]2CC[C@@H](OCCO)[C@H](OC)C2)CC(=O)[C@H](C)/C=C(\C)[C@@H](O)[C@@H](OC)C(=O)[C@H](C)C[C@H](C)/C=C/C=C/C=C/1C [Everolimus] | > 10 µM | > 10 µM | -19% | -24.2% | -24.2% | -22.2% | -6.06% | 5.54% | 0.73% | 1.76% | 3.41% | 25.7% |
| Nc1ncnc2c1ncn2[C@@H]1O[C@H](COP(=O)(O)O)[C@@H](O)[C@H]1O [Adenosine 5'-monophosphate monohydrate] | > 10 µM | > 10 µM | -22.7% | -25.1% | -20.2% | -18.3% | -15.5% | 14.8% | 5.2% | 12.1% | 10.3% | 11.9% |
